Where a name gives a salt, the structure may show the parent alone.
Assays:
[1] = test system: bladder (urinating contraction); experiment: Period of inhibition of rhythmic bladder contraction (urinating contraction) in urethane-anesthetized rats; type: in vivo, rat (Wistar strain, male); conditions: rat, saline control 1.6 min
Description: The compound of the invention was evaluated in urinating contraction of bladder by the following test method.
A male rat (Wistar strain) was fixed on his back under urethane anesthesia (1.5 g/kg, S.C.). A tracheal cannula was inserted into the rat to respire easily, and its hypogastrium was subjected to median dissection for exposing its bladder. A small opening was made on the top of the bladder to remove urine. To the bladder was inserted a polyethylene cannula. The bladder system was made to closed system by ligating urethra and ureter.
A physiological saline was injected into the bladder of rat at a rate of 0.05 mL/min. using a continuous injector so as to cause periodical urinating contraction. The intravesical pressure of the bladder was measured by means of a pressure transducer. The measured value was recorded on a pen-writing recorder. The compound to be tested was dissolved in a physiological saline and administered into the femoral vein using the polyethylene cannula.
The action for relieving urinating contraction was evaluated by measuring a period of time during which the rhythimic bladder contraction was inhibited (period of contraction inhibition).
The compounds tested were those obtained in the working examples.

[2] = Mouse acute toxicity LD50 (i.v.), Probit method; type: in vivo; conditions: calculated by Probit method; for LD50: in vivo, iv
Description: The results seen in Table 4 clearly indicate that the compound of the invention is effective in relieving urinating contraction. Further, the toxicity of the compound is set forth in Table 4 in terms of LD50 (mg/kg) calculated by Probit method.

[3] = 6 mg/kg i.v., Hydrochloride, 6 mg/kg
[4] = 6 mg/kg i.v., Fumarate, 6 mg/kg

Structure (SMILES)	Period of Contraction Inhibition ([1]; 8 mg/kg i.v.) [min]	LD50 [2] [mg/kg]	other results
Cl.O=C1CN(C(CCN2CCOCC2)c2ccccc2)S(=O)(=O)c2ccccc21 (single isomer, unassigned; (-)) [Example 20[B]] [(-)-2-(3-Morpholino-1-phenylpropyl)-2H-1,2-benzothiazin-4(3H)-one 1,1-Dioxide Hydrochloride]			Period of Contraction Inhibition [1, 3]: 0.4 min
Cl.O=C1CN(CCCN2CCC(Oc3ccccc3)CC2)S(=O)(=O)c2ccccc21 [Example 1, 2-[3-(4-Phenoxypiperidino)propyl]-2H-1,2-benzothiazin-4(3H)-one 1,1-dioxide Hydrochloride]			Period of Contraction Inhibition ([1]; 1 mg/kg i.v.): 2.8 min
N#CC1(c2ccccc2)CCN(CCCN2CC(=O)c3ccccc3S2(=O)=O)CC1.O=C(O)/C=C/C(=O)O [Example 32, 2-[3-(4-Cyano-4-phenylpiperidino)propyl]-2H-1,2-benzothiazin-4(3H)-one 1,1-Dioxide Fumarate]	6		
Cl.O=C1CN(C(CCN2CCOCC2)c2ccccc2)S(=O)(=O)c2ccccc21 (single isomer, unassigned; (+)) [Example 20[C]] [(+)-2-(3-Morpholino-1-phenylpropyl)-2H-1,2-benzothiazin-4(3H)-one 1,1-Dioxide Hydrochloride]			Period of Contraction Inhibition [1, 3]: 6.0 min; Mouse LD50 ([2]; Hydrochloride): 180 mg/kg
Cl.O=C1CN(CCCN2CCN(Cc3ccccc3)CC2)S(=O)(=O)c2ccccc21 [Example 14, 2-[3-(4-Benzyl-1-piperazinyl)propyl]-2H-1,2-benzothiazin-4(3H)-one 1,1-Dioxide Hydrochloride]	12.7	17	
O=C1c2ccccc2S(=O)(=O)N1C(CCN1CCN(c2ncccn2)CC1)c1ccccc1 (stereo not drawn) [Example XII, 2-[1-Phenyl-3-[4-(2-pyrimidinyl)-1-piperazinyl]propyl-1,2-benzisothiazol-3(2H)-one 1,1-Dioxide Hydrochloride]		> 200	Period of Contraction Inhibition ([1]; 20 mg/kg i.v.): 3.5 min
O=C1c2ccccc2S(=O)(=O)N1C(CCN1CCOCC1)c1ccccc1 (stereo not drawn) [Example IX, 2-(3-Morpholino-1-pheny)propyl-1,2-benzisothiazol-3(2H)-one 1,1-Dioxide Fumarate]		48	Period of Contraction Inhibition ([1]; 5 mg/kg i.v.): 10.7 min
Cl.O=C1CN(C(CCN2CCOCC2)c2ccccc2)S(=O)(=O)c2ccccc21 (single isomer, unassigned; (-)) [Example 20[B], (-)-2-(3-Morpholino-1-phenylpropyl)-2H-1,2-benzothiazin-4(3H)-one 1,1-Dioxide Hydrochloride]		140	
Cl.O=C1CN(CCCN2CCN(C(c3ccccc3)c3ccccc3)CC2)S(=O)(=O)c2ccccc21 [Example 12, 2-[3-(4-Diphenylmethyl-1-piperazinyl)propyl]-2H-1,2-benzothiazin-4(3H)-one 1,1-Dioxide Hydrochloride]	2.5		
O=C(O)/C=C/C(=O)O.O=C1c2ccccc2CS(=O)(=O)N1C(CCN1CCOCC1)c1ccccc1 (single isomer, unassigned; (+)) [Example 24[C]] [(+)-3-(3-Morpholino-1-phenylpropyl)-1H-2,3-benzothiazin-4(3H)-one 2,2-Dioxide Fumarate]			Period of Contraction Inhibition [1, 4]: 0.7 min; Mouse LD50 ([2]; Fumarate): 167 mg/kg
Cl.O=C1CN(C(CCN2CCOCC2)c2ccccc2)S(=O)(=O)c2ccccc21 (stereo not drawn) [Example 20[A], 2-(3-Morpholino-1-phenylpropyl)-2H-1,2-benzothiazin-4(3H)-one 1,1-Dioxide Hydrochloride]		> 120	Period of Contraction Inhibition ([1]; 12 mg/kg i.v.): 9.7 min
O=C1c2ccccc2S(=O)(=O)N1C(CCN1CCSCC1)c1ccccc1 (stereo not drawn) [Example II, 2-(1-Phenyl-3-thiomorpholino)propyl-1,2-benzisothiazol-3(2H)-one 1,1-Dioxide Fumarate]		47	Period of Contraction Inhibition ([1]; 5 mg/kg i.v.): 3.8 min
CCCCN(CCCN1CC(=O)c2ccccc2S1(=O)=O)Cc1ccccc1.Cl [Example 11, 2-[3-(N-Benzyl-N-butylamino)propyl]-2H-1,2-benzothiazin-4(3H)-one 1,1-Dioxide Hydrochloride]	3.9	37	
O=C(O)/C=C/C(=O)O.O=C1c2ccccc2CS(=O)(=O)N1C(CCN1CCOCC1)c1ccccc1 (single isomer, unassigned; (-)) [Example 24[B]] [(-)-3-(3-Morpholino-1-phenylpropyl)-1H-2,3-benzothiazin-4(3H)-one 2,2-Dioxide Fumarate]			Period of Contraction Inhibition [1, 4]: 8.5 min; Mouse LD50 ([2]; Fumarate): 32 mg/kg
Cl.O=C1CN(CCCN2CCC(OCc3ccccc3)CC2)S(=O)(=O)c2ccccc21 [Example 2, 2-[3-(4-Benzyloxypiperidino)propyl]-2H-1,2-benzothiazin-4(3H)-one 1,1-Dioxide Hydrochloride]	16		
N#CC1(c2ccccc2)CCN(CCC(c2ccccc2)N2CC(=O)c3ccccc3S2(=O)=O)CC1.O=C(O)/C=C/C(=O)O (stereo not drawn) [Example 34, 2-[3-(4-Cyano-4-phenylpiperidino)-1-phenylpropyl]-2H-1,2-benzothiazin-4(3H)-one 1,1-Dioxide Fumarate]	3		
Cl.O=C1CN(CCCN2CCC(Cc3ccccc3)CC2)S(=O)(=O)c2ccccc21 [Example 10, 2-[3-(4-Benzylpiperidino)propyl)-2H-1,2-benzothiazin-4(3H)-one 1,1-Dioxide Hydrochloride]	14.5	3	
Cl.O=C1CN(C(CCN2CCSCC2)c2ccccc2)S(=O)(=O)c2ccccc21 (stereo not drawn) [Example 21, 2-(1-Phenyl-3-thiomorpholinopropyl)-2H-1,2-benzothiazin-4(3H)-one 1,1-Dioxide Hydrochloride]		> 100	Period of Contraction Inhibition ([1]; 10 mg/kg i.v.): 7.0 min
O=C1CN(CCCN2CCc3ccccc3C2)S(=O)(=O)c2ccccc21 [Example 15, 2-[3-[2-(1,2,3,4-Tetrahydroisoquinolyl)]propyl]-2H-1,2-benzothiazin-4(3H)-one 1,1-Dioxide Hydrochloride]	4.7	23	
O=C(O)/C=C/C(=O)O.O=C1c2ccccc2CS(=O)(=O)N1C(CCN1CCOCC1)c1ccccc1 (stereo not drawn) [Example 24[A], 3-(3-Morpholino-1-phenylpropyl)-1H-2,3-benzothiazin-4(3H)-one 2,2-Dioxide Fumarate]		62	Period of Contraction Inhibition ([1]; 12 mg/kg i.v.): 5.6 min
CS(=O)(=O)O.O=C1c2ccccc2CS(=O)(=O)N1C(CCN1CCSCC1)c1ccccc1 (stereo not drawn) [Example 26, 3-(1-Phenyl-3-thiomorpholinopropyl)-1H-2,3-benzothiazin-4(3H)-one 2,2-Dioxide Mesylate]		37	Period of Contraction Inhibition ([1]; 4 mg/kg i.v.): 7.3 min
CC(=O)N1CCN(CCC(c2ccccc2)N2C(=O)c3ccccc3S2(=O)=O)CC1 (stereo not drawn) [Example XI, 2-[3-(4-Acetyl-1-piperazinyl)-1-pheny]propyl-1,2-benzisothiazol-3(2H)-one 1,1-Dioxide Fumarate]		170	Period of Contraction Inhibition ([1]; 17 mg/kg i.v.): 6.0 min
Cl.O=C1CN(CCN2CCC(Cc3ccccc3)CC2)S(=O)(=O)c2ccccc21 [Example 13, 2-[2-(4-Benzylpiperidino)ethyl]-2H-1,2-benzothiazin-4(3H)-one 1,1-Dioxide Hydrochloride]	18		
O=C(O)/C=C/C(=O)O.O=C1c2ccccc2CS(=O)(=O)N1CCCN1CCC(Cc2ccccc2)CC1 [Example 3, 3-[3-(4-Benzylpiperidino)propyl]-1H-2,3-benzothiazin-4(3H)-one 2,2-Dioxide Fumarate]	2		
